Measured values from publication PMC6150365, “Simultaneous Determination of Seven Components in Rat Plasma by the UPLC-MS/MS Method and Application of Pharmacokinetic Studies to SimiaoYong’an Decoction” (Molecules : A Journal of Synthetic Chemistry and Natural …, 2017).

Assay: Pharmacokinetic study in rats after oral administration of SYD extract and its single and combined TCM extracts (UPLC-MS/MS of plasma)
Conditions: male, Sprague-Dawley, rat, plasma, po, n = 6; for AUC(0-t) / AUC(0-inf) / MRT last / MRT inf / Tmax / Cmax: rat plasma; for MRT last: MRT(0–t); for MRT inf: MRT(0–∞)
[1] = 2.49 g/kg, oral SN extract 2.49 g/kg
[2] = 3.38 g/kg extract (6.67 g/kg as herbs), oral SN + GU extract
[3] = 3.38 g·kg^−1 (extract), oral SN + GU extract
[4] = 3.98 g/kg extract (8.33 g/kg as herbs), oral SN + AS extract
[5] = 4.5 g·kg^−1 (extract), oral LJ + SN extract
[6] = 4.5 g·kg^−1 extract, oral LJ + SN extract
[7] = 4.73 g/kg, oral LJ + SN + GU extract 4.73 g/kg
[8] = 5.43 g/kg, oral LJ + SN + AS extract 5.43 g/kg
[9] = 8.25 g/kg, oral SYD extract 8.25 g/kg

## COc1ccc(CCO[C@@H]2O[C@H](CO[C@@H]3OC[C@H](O)[C@H](O)[C@H]3O)[C@@H](OC(=O)/C=C/c3ccc(O)c(OC)c3)[C@H](O[C@@H]3O[C@@H](C)[C@H](O)[C@@H](O)[C@H]3O)[C@H]2O)cc1O [Angoroside C, angoroside C]
[1]
  AUC(0-t): 90 ± 30 ng·h/mL
  AUC(0-inf): 110 ± 20 ng·h/mL
  MRT last: 3.03 ± 0.37 h
  MRT inf: 18.1 ± 3.41 h
2.49 g/kg, Tmax, oral SN extract 2.49 g/kg
  Tmax: 1.25 ± 0.59 h
2.49 g/kg, t1/2, rat plasma, oral SN extract 2.49 g/kg
  half-life: 10.7 ± 6.13 h
[2]
  MRT last: 2.86 ± 1.21 h
  MRT inf: 4.99 ± 3.19 h
3.38 g/kg extract (6.67 g/kg as herbs), Tmax, oral SN + GU extract
  Tmax: 1.11 ± 0.52 h
3.38 g/kg extract (6.67 g/kg as herbs), t1/2, rat plasma, oral SN + GU extract
  half-life: 9.91 ± 4.62 h
[3]
  AUC(0-t): 410 ± 60 ng·h/mL
  AUC(0-inf): 420 ± 80 ng·h/mL
3.38 g·kg^−1 extract, oral SN + GU extract
  Cmax: 330 ± 50 ng/mL
[4]
  AUC(0-t): 450 ± 30 ng·h/mL
  AUC(0-inf): 460 ± 30 ng·h/mL
  MRT last: 2.85 ± 1.25 h
  MRT inf: 5.01 ± 3.31 h
3.98 g·kg^−1, Tmax, oral SN + AS extract
  Tmax: 1.03 ± 0.49 h
3.98 g·kg^−1, t1/2, rat plasma, oral SN + AS extract
  half-life: 10 ± 4.72 h
3.98 g·kg^−1 extract, oral SN + AS extract
  Cmax: 400 ± 20 ng/mL
[5]
  MRT last: 2.88 ± 1.23 h
  MRT inf: 5.22 ± 3.5 h
4.5 g·kg^−1 (extract), Tmax, oral LJ + SN extract
  Tmax: 1.07 ± 0.54 h
4.5 g·kg^−1 (extract), t1/2, rat plasma, oral LJ + SN extract
  half-life: 10.3 ± 5.06 h
[6]
  AUC(0-t): 390 ± 460 ng·h/mL
  AUC(0-inf): 400 ± 460 ng·h/mL
  Cmax: 270 ± 330 ng/mL
[7]
  AUC(0-t): 220 ± 90 ng·h/mL
  AUC(0-inf): 230 ± 190 ng·h/mL
  Cmax: 150 ± 150 ng/mL
  MRT last: 2.95 ± 0.82 h
  MRT inf: 7.88 ± 6.88 h
4.73 g/kg, Tmax, oral LJ + SN + GU extract 4.73 g/kg
  Tmax: 1.29 ± 0.46 h
4.73 g/kg, t1/2, rat plasma, oral LJ + SN + GU extract 4.73 g/kg
  half-life: 11.7 ± 6.52 h
[8]
  AUC(0-t): 180 ± 130 ng·h/mL
  AUC(0-inf): 200 ± 130 ng·h/mL
  Cmax: 140 ± 130 ng/mL
  MRT last: 3.05 ± 0.7 h
  MRT inf: 8.16 ± 6.76 h
5.43 g/kg, Tmax, oral LJ + SN + AS extract 5.43 g/kg
  Tmax: 1.38 ± 0.44 h
5.43 g/kg, t1/2, rat plasma, oral LJ + SN + AS extract 5.43 g/kg
  half-life: 11.8 ± 6.58 h
[9]
  AUC(0-t): 300 ± 290 ng·h/mL
  AUC(0-inf): 310 ± 290 ng·h/mL
  Cmax: 180 ± 200 ng/mL
  MRT last: 3.01 ± 0.69 h
  MRT inf: 7.01 ± 5.95 h
8.25 g/kg, Tmax, oral SYD extract 8.25 g/kg
  Tmax: 1.38 ± 0.44 h
8.25 g/kg, t1/2, rat plasma, oral SYD extract 8.25 g/kg
  half-life: 11.4 ± 6.34 h
[…], Tmax, oral SN + AS + GU extract […]
  Tmax: 1.38 ± 0.44 h
[…], t1/2, rat plasma, oral SN + AS + GU extract […]
  half-life: 11.6 ± 6.42 h
